Legend:
[1] = tested on: Cats After Traumatic Spinal Cord Injury; assay: Neurologic recovery in cats after traumatic spinal cord injury (C-7 weight-drop); format: in vivo, cat; design: key to total functional score (forelimb + hindlimb scores): sum of forelimb + hindlimb scores, each 0 = no movement to 5 = normal; settings: for neurologic and motoric function compared with saline: after 6 weeks
Method: Cats anesthetized with sodium pentobarbital were subjected under aseptic conditions to a laminectomy to expose the C-7 spinal segment. With the dura intact, the spinal cord was traumatized by dropping a 20 g weight a distance of 30 cm through a guide tube onto a 10 square-millimeter impact plate. Drugs were given intravenously as a bolus injection (0.5 ml) at 1 and 3 hours after injury. A group of 9 animals was treated with 0.2mg/kg of orotyl-L-histidyl-L-prolinamide dissolved in 0.5 ml of physiological saline. A second group of 7 animals was given 1 mg/kg L-pyro-2-aminoapidyl-L-nistidyl-thiazolidine-4-carboxamide (also dissolved in 0.5 ml of physiological saline), which compound is referred to hereinafter as "compound A" and which has been described in the literature as an active TRH-modification product and has also been compared with the aforementioned orotylL-histidyl-L-prolinamide (c.f. Metcalf in Thyrotropin Releasing Hormone, E. C. Griffiths et al., eds., Raven Press, New York, 1983, pp. 315-26). A control group of 11 animals was treated with 0.5 ml of physiological saline per animal.
Neurologic function was evaluated weekly for six weeks by a neurologist who was unaware of the treatment group and assessed according to a six-point ordinal scale as described by Faden et al. in Neurology, Vol. 33, pp. 673-678 (1983). Forelimb and hindlimb function were scored separately as follows: 0 =absence of voluntary movement; 1 =spontaneous movement but inability to support weight; 2=ability to support weight but unable to walk; 3=ability to walk but with marked spasticity and/or ataxia; 4=ability to run but with mild spasticity or ataxia; and 5=normal motor function. Forelimb and hindlimb scores were then added together to obtain a total functional score.

[2] = tested on: experimental spinal cord injury; settings: animal experiments; treatment during the first 24 hours following the trauma; cited from earlier work
[3] = tested on: brain stem compression in cats; settings: cited from earlier work

**Q.** With `NC(=O)C1CSCN1C(=O)[C@H](Cc1c[nH]cn1)NC(=O)[C@@H]1CCCC(=O)N1` (stereo partly drawn) [A, L-pyro-2-aminoapidyl-L-nistidyl-thiazolidine-4-carboxamide] as the compound, how does the “neurologic and motoric function compared with saline” value ([1]; 1 mg/kg i.v. at 1 and 3 hours after injury) read?
**A.** did not differ significantly from those of saline

**Q.** And the “total functional score (forelimb + hindlimb scores)” value (shortened to “total functional score”) ([1]; week 1 after injury, 1 mg/kg i.v. bolus at 1 and 3 hours after injury, n = 7)?
**A.** 4

**Q.** What about the “total functional score” value ([1]; week 2 after injury, 1 mg/kg i.v. bolus at 1 and 3 hours after injury, n = 7) of the same compound?
**A.** 5

**Q.** What about the “total functional score” value ([1]; week 3 after injury, 1 mg/kg i.v. bolus at 1 and 3 hours after injury, n = 7) of the same compound?
**A.** 5

**Q.** What about the “total functional score” value ([1]; week 4 after injury, 1 mg/kg i.v. bolus at 1 and 3 hours after injury, n = 7) of the same compound?
**A.** 5

**Q.** And the “total functional score” value ([1]; week 5 after injury, 1 mg/kg i.v. bolus at 1 and 3 hours after injury, n = 7)?
**A.** 6

**Q.** What about the “total functional score” value ([1]; week 6 after injury, 1 mg/kg i.v. bolus at 1 and 3 hours after injury, n = 7) of the same compound?
**A.** 6

**Q.** Which “neurologic and motoric function compared with saline” value ([1]; 0.2 mg/kg i.v. at 1 and 3 hours after injury) does the source give for `NC(=O)[C@@H]1CCCN1C(=O)[C@H](Cc1c[nH]cn1)NC(=O)c1cc(=O)[nH]c(=O)[nH]1` [Compound of Invention, orotyl-L-histidyl-L-prolinamide] here?
**A.** significantly improved

**Q.** What about the “total functional score” value ([1]; week 1 after injury, 0.2 mg/kg i.v. bolus at 1 and 3 hours after injury, n = 9) of the same compound?
**A.** 6

**Q.** And the “total functional score” value ([1]; week 2 after injury, 0.2 mg/kg i.v. bolus at 1 and 3 hours after injury, n = 9)?
**A.** 6

**Q.** What about the “total functional score” value ([1]; week 3 after injury, 0.2 mg/kg i.v. bolus at 1 and 3 hours after injury, n = 9) of the same compound?
**A.** 6

**Q.** And the “total functional score” value ([1]; week 4 after injury, 0.2 mg/kg i.v. bolus at 1 and 3 hours after injury, n = 9)?
**A.** 7

**Q.** And the “total functional score” value ([1]; week 5 after injury, 0.2 mg/kg i.v. bolus at 1 and 3 hours after injury, n = 9)?
**A.** 8

**Q.** What about the “total functional score” value ([1]; week 6 after injury, 0.2 mg/kg i.v. bolus at 1 and 3 hours after injury, n = 9) of the same compound?
**A.** 8

**Q.** Which “recovery of the motoric function after experimental spinal cord injury” value [2] does the source give for `NC(=O)[C@@H]1CCCN1C(=O)[C@H](Cc1c[nH]cn1)NC(=O)[C@@H]1CCC(=O)N1` [TRH, L-pyroglutamyl-L-histidyl-L-prolinamide] here?
**A.** significantly improves recovery of the motoric function

**Q.** And the “effect on EEG alterations resulting from traumata of the brain” value [3]?
**A.** dose-dependent positive effect
